According to patent US20240285599A1, “Mature-Hepatocyte Transdifferentiation Suppressing Composition” (OSAKA UNIVERSITY, priority 2021, published 2024):

Tests used:
[1] = tested on: TRAF3/PTEN knockdown primary human hepatocyte (PHH); test: KRT19 mRNA quantification and immunoblotting (P52) in TRAF3/PTEN knockdown primary human hepatocyte; type: cell-based; conditions: PHH (PTKD #1); for increase in expression of P52 by knockdown of TRAF3 and PTEN: western blot
Protocol: Human hepatocyte chimeric mice were generated in accordance with the protocol of the previous report (Hasegawa M, et al. Biochem Biophys Res Commun. 2011; 405(3): 405-410). Ganciclovir was administered to each of highly immunocompromised NOG mice (TK-NOG) each having a liver in which a herpes simplex virus type 1 thymidine kinase transgene had been expressed to induce liver injury, followed by the transplantation of human hepatocytes. As described in the previous report (Murai K, et al. Sci Rep. 2020; 10(1): 941), primary human hepatocytes were collected from the human hepatocyte chimeric mice each having a chimeric liver rate of 90% or more by using a two-step collagenase-pronase reflux method. It was recognized by FACS that the human hepatocytes accounted for 90% or more of the collected cells. Those cells were spread on a collagen-coated dish and cultured.
(§1) The transfection of siRNA or a plasmid into cells was performed with Lipofectamine RNAiMAX Transfection Reagent (Thermo Fisher Scientific, Inc., USA) or Lipofectamine 2000 (Thermo Fisher Scientific, Inc., USA), respectively, and with Opti-MEM (Thermo Fisher Scientific, Inc., USA). The transfection of the siRNA was performed as follows: the cells were dispersed at a concentration of 100,000 cells/mL; 10 μM of the siRNA was mixed into 100 μL of the Opti-MEM at a ratio of 1 μL, and the mixture was left at rest for 5 minutes; and then 3 μL of the RNAiMAX was mixed into the mixture, and the whole was left at rest for 15 minutes, followed by administration to the supernatant of the previously dispersed cells. Further, a medium change was performed 24 hours thereafter.
A procedure for western blotting is as described in the previous report (Tanaka S, et al. Hepatology. 2016; 64(6): 1994-2014). The protein extracts of cells and animal tissues were prepared by using a lysis buffer having added thereto a protease inhibitor (Nacalai Tesque, Inc., Japan) and a phosphatase inhibitor (Nacalai Tesque, Inc., Japan). In western blotting for the detection of NIK, MG-132 (ChemScene, USA) was administered at a concentration of 5 μM 4 hours before protein recovery. The following antibodies were used in immunodetection: TRAF3 (1:1,000 Cell Signaling, #4729), PTEN (1:1,000 Cell Signaling, #9188), KRT19 (1:50,000 Abcam, #ab52625), p100/p52 (1:1,000 Cell Signaling, #4882), NIK (1:1,000 Cell Signaling, #4994), and β-actin (1:10,000 Sigma-Aldrich Co., LLC, #A5316). Anti-mouse IgG, HRP-linked whole Ab sheep (Cytiva, Japan), or anti-rabbit IgG, HRP-linked whole Ab donkey (Cytiva, Japan) was used as a secondary antibody, and luminescence analysis was performed with SuperSignal (trademark) West Pico PLUS Chemiluminescent Substrate (Thermo Fisher Scientific, Inc., USA).
Total RNA was extracted from a cell line and a human liver tissue with RNeasy Mini Kit (QIAGEN N.V., Nederland). Then, 1 μg of the total RNA was reverse-transcribed with ReverTra Ace qPCR RT Kit (Toyobo Co., Ltd., Tokyo) to synthesize complementary DNA. The mRNA expression of each of the following genes was analyzed through use of a TaqMan gene expression assay: human GAPDH (Hs02758991), human TRAF3 (Hs00936781), human PTEN (Hs02621230), human KRT19 (Hs00761767), human NIK (Hs01089753), mouse Gapdh (Mm09999915), mouse Traf3 (Mm00495752), mouse Pten (Mm00477208), mouse Krt19 (Mm00492980), mouse NIK (Mm00444166), and mouse Alb (Mm00802090). The gene expression amount of a human and the gene expression amount of a mouse were normalized to the expression amount of GAPDH.
The effect of TRAF3/PTEN inhibition on the expression of a bile duct marker in each of a primary human hepatocyte (hereinafter also referred to as “PHH”) and a human hepatoma cell line HepG2 cell (hereinafter also referred to as “HepG2”) was evaluated. The PHH and the HepG2 are each a mature hepatocyte having an albumin-producing ability. The TRAF3 and PTEN of each of the HepG2 and the PHH were knocked down with siRNA. […]

[2] = tested on: human cholangiocarcinoma cell line HuCCT1; test: Cell proliferation assay (IncuCyte) of cholangiocarcinoma cell line HuCCT1; type: cell-based
Protocol: A human hepatoma cell line HepG2, and human cholangiocarcinoma cell lines HuCCT1, HuCCA1, and KKU213 were obtained from the JCRB Cell Bank. The HepG2 and KKU213 cells were cultured in a Dulbecco's modified Eagle's medium (DMEM; Nacalai Tesque, Inc., Japan) having added thereto 10% heat-inactivated fetal calf serum (FCS; Gibco, USA). The HuCCT1 cells were cultured in an RPMI medium (Nacalai Tesque, Inc., Japan) containing 10% FCS. The HuCCA1 cells were cultured in D-MEM/Ham's F-12 (containing L-glutamine and phenol red) (Wako Pure Chemical Industries, Ltd., Japan) having added thereto 10% FCS. All the cells were cultured with a CO2 incubator at 37° C. The cells were detached with trypsin (Nacalai Tesque, Inc., Japan), and were passaged. Those cells were routinely examined for mycoplasma.
as §1
Hepatocytes or cholangiocarcinoma cells were inoculated on a 96-well plate, and their cell proliferation was analyzed with IncuCyte (trademark) Si (Sartorius AG, Germany) in accordance with the manufacturer's instructions.
Two kinds of NIK siRNA (the NIK KD #1 and the NIK KD #2) were introduced into each of human cholangiocarcinoma cell lines HuCCT1, HuCCA1, and KKU213 to knock down MAP3K14 (NIK). […]

[3] = NIK siRNA transfected, 72 h, FIG. 13
[4] = NIK siRNA transfected, cells recovered after 72 h culture, FIG. 13

COc1cc(C(N)=O)nc(-c2cccc(C#C[C@]3(O)CCN(C)C3=O)c2)c1 [NIKSMI, (R)-6-(3-((3-hydroxy-1-methyl-2-oxopyrrolidin-3-yl)ethynyl)phenyl)-4-methoxypicolinamide]
significantly suppressed: increase in expression of KRT19 by knockdown of TRAF3 and PTEN ([1]; NIKSMI 9 μM added 24 h after start of culture, cells recovered 48 h later, FIG. 11) | increase in expression of P52 by knockdown of TRAF3 and PTEN ([1]; NIKSMI 9 μM, 48 h, FIG. 11) | proliferation of cholangiocarcinoma cells ([2]; 9 μM or 15 μM added at beginning of culture, FIG. 21A)

NIK KD #2: siRNA of NIK, SEQ ID NO: 4 (sense) and 5 (antisense), from Thermo Fisher Scientific (sense GCAAAGAGCAAGAACCAAAUU; antisense UUUGGUUCUUGCUCUUUGCGU; listed as RNA, chemistry not given here)
significantly suppressed: increase in expression of P52 by knockdown of TRAF3 and PTEN [1, 3] | increase in expression of KRT19 by knockdown of TRAF3 and PTEN [1, 4] | proliferation of cholangiocarcinoma cells ([2]; NIK siRNA introduced, FIG. 18)

NIK KD #1: siRNA of NIK, SEQ ID NO: 2 (sense) and 3 (antisense), from Thermo Fisher Scientific (sense CAAACGCAAAGAGCAAGAAUU; antisense UUCUUGCUCUUUGCGUUUGCA; listed as RNA, chemistry not given here)
significantly suppressed: increase in expression of P52 by knockdown of TRAF3 and PTEN [1, 3] | increase in expression of KRT19 by knockdown of TRAF3 and PTEN [1, 4] | proliferation of cholangiocarcinoma cells ([2]; NIK siRNA introduced, FIG. 18)
